Results: publication PMC11077089, “Molecular basis of A. thaliana KEOPS complex in biosynthesizing tRNA t^6A” (Nucleic Acids Research, 2024)

Columns and labels:
Format in all cases: biochemical
[1] = biological target: T1, KBP (KAE1–BUD32–PCC1) (Arabidopsis thaliana, UniProt Q94K14); assay: NADH-coupled ATPase assay; details: 2 mM ATP, 5 μM protein, 5 mM MgCl2, pH 7.5, 25°C
T1 construct: gene T1N24.12; subcomplex without CGI121, recombinant from E. coli; dimer by SEC; with tRNA N6-adenosine threonylcarbamoyltransferase KAE1; EKC/KEOPS complex subunit PCC1
T1 sequence (Q94K14 1-226): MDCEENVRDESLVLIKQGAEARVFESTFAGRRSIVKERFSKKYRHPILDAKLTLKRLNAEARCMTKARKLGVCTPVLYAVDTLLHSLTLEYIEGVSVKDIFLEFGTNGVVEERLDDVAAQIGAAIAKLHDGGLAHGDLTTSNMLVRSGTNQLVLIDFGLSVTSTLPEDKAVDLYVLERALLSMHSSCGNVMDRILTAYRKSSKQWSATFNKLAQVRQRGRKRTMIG
T1 sequence (O49653 1-353 partner): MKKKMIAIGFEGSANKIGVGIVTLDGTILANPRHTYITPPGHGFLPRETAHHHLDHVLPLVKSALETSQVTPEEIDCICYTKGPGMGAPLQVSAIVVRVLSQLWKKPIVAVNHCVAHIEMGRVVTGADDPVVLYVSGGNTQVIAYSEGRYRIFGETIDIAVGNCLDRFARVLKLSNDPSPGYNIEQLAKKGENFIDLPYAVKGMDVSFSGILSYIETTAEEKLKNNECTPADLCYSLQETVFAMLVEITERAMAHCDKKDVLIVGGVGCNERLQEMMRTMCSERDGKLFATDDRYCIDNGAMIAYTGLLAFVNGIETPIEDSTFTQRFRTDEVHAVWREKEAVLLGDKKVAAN
T1 sequence (Q8GWD7 1-96 partner): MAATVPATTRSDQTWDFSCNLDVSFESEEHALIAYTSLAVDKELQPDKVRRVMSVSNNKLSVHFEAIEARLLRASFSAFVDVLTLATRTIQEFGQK

[2] = biological target: T2, KB (KAE1–BUD32) (Arabidopsis thaliana, UniProt Q94K14); assay: NADH-coupled ATPase assay; details: 2 mM ATP, 5 μM protein, 5 mM MgCl2, pH 7.5, 25°C
T2 construct: gene T1N24.12; pET21a-AtKAE1-BUD32-6His, E. coli; monomer (1:1) by SEC; with tRNA N6-adenosine threonylcarbamoyltransferase KAE1
T2 sequence (Q94K14 1-226): T1 sequence (Q94K14 1-226)
T2 sequence (O49653 1-353 partner): T1 sequence (O49653 1-353 partner)

[3] = biological target: T3, AtYRDC (A. thaliana YRDC) (Arabidopsis thaliana, UniProt F4K0E6); assay: LC-MS of TC-AMP formation; details: 2 μM YRDC, 4 mM L-threonine, 2 mM ATP, 20 mM NaHCO3, 5 mM MgCl2, pH 7.5, 25°C
T3 construct: gene MUP24.1; pET21a-AtYRDC-6His, E. coli, synthetic DNA
T3 sequence (F4K0E6 1-288): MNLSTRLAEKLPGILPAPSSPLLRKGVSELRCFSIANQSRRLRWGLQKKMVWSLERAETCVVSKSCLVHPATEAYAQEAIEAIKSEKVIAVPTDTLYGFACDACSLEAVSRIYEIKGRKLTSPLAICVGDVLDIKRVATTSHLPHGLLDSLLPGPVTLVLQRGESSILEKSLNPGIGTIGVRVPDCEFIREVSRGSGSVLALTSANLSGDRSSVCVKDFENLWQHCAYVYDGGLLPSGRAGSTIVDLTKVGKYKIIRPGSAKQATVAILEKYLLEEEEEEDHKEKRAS

Question: With `Nc1ncnc2c1ncn2[C@@H]1O[C@H](COP(=O)(O)OP(=O)(O)OP(=O)(O)O)[C@@H](O)[C@H]1O` [ATP] as the molecule, how does the “NADH-coupled ATPase assay” value [1] read?
Answer: efficient conversion of ATP to ADP in the presence of KAE1–BUD32, PCC1–KAE1–BUD32 or KEOPS

Question: And the “NADH-coupled ATPase assay” value [2]?
Answer: efficient conversion of ATP to ADP in the presence of KAE1–BUD32, PCC1–KAE1–BUD32 or KEOPS

Question: With `C[C@@H](O)[C@H](N)C(=O)O` [L-threonine] as the molecule, how does the “LC-MS of TC-AMP formation” value [3] read?
Answer: YRDC is active in catalyzing the formation of threonylcarbamoyl-AMP (TC-AMP)
